From patent EP0064487A1, “New substituted 3-(parasubstituted)phenoxy-1-alkylamino-propanol-2-s, as well as process for their preparation, pharmaceutical preparations containing same, and method for treating cardiac failure” (priority 1981, dated 1982)

Assays:
[1] = system: inotropic effect (max dF/dt) in the aorta; experiment: Duration of positive inotropic action (decline of max dF/dt in the aorta) in conscious dogs, i.v. dosing; assay type: in vivo; settings: conscious beagle dogs, intravenous
Description: The duration of action of the compounds has been studied in conscious beagle dogs. An electromagnetic flow probe was inplanted on the ascending aorta for determination of the r inotropic effect measured as maximal flow acceleration (max dF/dt) in the aorta. For determination of blood pressure catheters were inplanted in thoracic aorta and .left atrium. Increasing doses of the substances were administered intravenously and the decline of inotropic effect (max dF/dt) was used for determination of duration.

[2] = system: contractility of the heart; experiment: Positive inotropic effect (increase in max dP/dt) in reserpine-pretreated, anaesthetized cats, i.v. dosing; assay type: in vivo; settings: continuous infusion
Description: The positive inotropic effect and the cardioselectivity of the compounds were studied in cats with an average weight of 3 kg. The animals were pretreated with reserpine (5 mg/kg i.p.) about 16 hours before experiment. This treatment eliminated the reflex sympathetic control of the heart and the vascular tonus. Following pentobarbital anaesthesia (Mebumal^e, 30 mg/kg i.p.) artificial air respiration was started. The two vagus nerves were cut and the adrenal glands were excluded from the circulation by means of ligatures on the adrenal veins.
Blood pH, pC02 and p02 were kept within the normal ranges throughout the experiments. All recordings were made on a Grass Polygraph. Heart rate, pressure in the left ventricle (LVP), the first derivative of LVP (dP/dt), intra-arterial blood pressure and peripheral resistance were recorded. LVP was recorded via a catheter tip pressure transducer (Millar), which was inserted via the left carotid artery. This.pressure curve was differentiated and max dP/dt was recorded by means of a peak detector. The recording of max dP/dt was linear up to 20 […]. The increase in max dP/dt was used as a measure of the increased contractility of the heart.
The substances were administered intravenously in increasing doses. […]

CC(C)NCC(O)c1ccc(O)c(O)c1 (centres unmarked) [isoprenaline]
time for 50% decline of the positive inotropic effect (max dF/dt) [1]: less than 1 min | Half maximal effect [2]: 0.004 µmol/kg/min
